Columns and labels:
[1] = target: Trans-2-enoyl-ACP reductase II (Streptococcus pneumoniae, UniProt Q9FBC5); test: Enzyme Inhibition Assay; conditions: 30 °C
Protocol: (§1) Assays were carried out in half-area, 96-well microtiter plates. Compounds were evaluated in assay mixtures containing components specific for each enzyme. Inhibitors were varied over the range 0.01-10 uM. The consumption of NAD(P)H was monitored for 20 min at 30 °C by following the change in absorbance at 340 nm. IC50 values were estimated from a fit of the initial velocities to a standard equation.

[2] = target: T1, Enoyl-[acyl-carrier-protein] reductase [NADH] FabI (Escherichia coli (strain K12), UniProt P0AEK4); test: Enzyme Inhibition Assay; conditions: pH 6.5; 30 °C
T1 sequence (P0AEK4 whole entry): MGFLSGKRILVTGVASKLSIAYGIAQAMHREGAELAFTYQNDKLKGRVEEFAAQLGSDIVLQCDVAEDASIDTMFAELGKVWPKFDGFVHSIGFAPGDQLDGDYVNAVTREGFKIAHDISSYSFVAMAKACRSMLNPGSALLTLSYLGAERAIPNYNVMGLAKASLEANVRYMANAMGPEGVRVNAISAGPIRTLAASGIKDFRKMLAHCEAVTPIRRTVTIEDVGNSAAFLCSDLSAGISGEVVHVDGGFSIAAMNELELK
Protocol: as §1

Trans-2-enoyl-ACP reductase II, sequence (Q9FBC5 whole entry): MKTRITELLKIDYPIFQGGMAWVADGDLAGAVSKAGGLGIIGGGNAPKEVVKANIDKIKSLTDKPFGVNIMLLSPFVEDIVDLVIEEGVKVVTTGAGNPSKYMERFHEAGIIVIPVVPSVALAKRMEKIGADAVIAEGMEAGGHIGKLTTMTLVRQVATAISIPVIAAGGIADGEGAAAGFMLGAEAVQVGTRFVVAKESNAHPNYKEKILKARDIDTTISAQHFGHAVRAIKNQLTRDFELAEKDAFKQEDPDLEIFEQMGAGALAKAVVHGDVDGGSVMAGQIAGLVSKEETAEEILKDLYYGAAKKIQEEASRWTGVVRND

IC50 [1] [µM] | IC50 [2] [nM] | Structure (SMILES)
> 30 | < 70 | Cc1cccc2c(CN(C)C(=O)/C=C/c3cnc4c(c3)CCC(=O)N4)c(C)n(C)c12 [(2E)-N-methyl-3-(7-oxo-5,6,7,8-tetrahydro-1,8-naphthyridin-3-yl)-N-[(1,2,7-trimethyl-1H-indol-3-yl)methyl]prop-2-enamide]
 | < 60 | Cc1[nH]c2ccccc2c1CN(C)C(=O)/C=C/c1cnc2c(c1)CCC(=O)N2 [(2E)-N-methyl-N-[(2-methyl-1H-indol-3-yl)methyl]-3-(7-oxo-5,6,7,8-tetrahydro-1,8-naphthyridin-3-yl)prop-2-enamide]
> 30 |  | Cc1c(CN(C)C(=O)/C=C/c2cnc3c(c2)CCC(=O)N3)c2ccccc2n1C [(E)-N-(1,2-Dimethyl-1H-indol-3-ylmethyl)-N-methyl-3-(7-oxo-5,6,7,8-tetrahydro-1,8-naphthyridin-3-yl)acrylamide]

Structure (SMILES) | IC50 [1] [µM] | IC50 [2] [nM]
Oc1cc(Cl)ccc1Oc1ccc(Cl)cc1Cl | > 30 | 

Reference: BindingDB's records for doi:10.1021/jm0204035 (Glaxosmithkline, 2003)
